What was measured:
[1] = target: mP2X7 (Mus musculus (Mouse), UniProt Q9Z1M0); assay: mP2X7 channel calcium-influx assay (Fluo-8 NW, FLIPR TETRA, Bz-ATP stimulation); format: cell-based
In short: (§1)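 HEK-293 cells stably expressing human or mouse P2X7, preloaded with Fluo-8 NW dye for 1 h at RT. Compounds added, Bz-ATP-evoked Ca2+ influx followed as fluorescence kinetics over 5 min on FLIPR TETRA; A438079 served as reference antagonist.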

[2] = target: P2X7 receptor (Homo sapiens (Human), UniProt Q99572); assay: Human P2X7 channel calcium-influx assay (Fluo-8 NW, FLIPR TETRA, Bz-ATP stimulation); format: cell-based; details: HEK-293 cells stably transfected with P2X7 receptor, Low Divalent Cation Assay Buffer, read-out: hP2X7 IC50
In short: as §1

[3] = system: CYP4503A4; assay: CYP4503A4 metabolic induction (mRNA expression) in human cryopreserved platable hepatocytes; format: in vitro ADME; details: 10 μM test compound, two days treatment, mRNA by QuantiGene Plex 2.0
Method: In Vitro Evaluation of Test Compounds for CYP4503A4 Metabolic Induction Using Human Liver Hepatocytes.
CYP induction assessment was performed using human cryopreserved platable hepatocytes. Test compound was assessed at three or six different concentrations in duplicate.
A sandwich culture of platable cryopreserved hepatocytes was used with one day recovery period after plating. Assessment of cell morphology and confluency was performed using a phase-contrast microscope for representative wells.
The plated hepatocyte cell monolayers were treated with test compound, negative and positive controls for two days changing medium every 24 hours. On the fourth day, assessment of cell morphology and confluency was repeated to ensure cell monolayer integrity. Assessment of cell morphology and confluency was performed using a phase-contrast microscope for representative wells.
Cell monolayers were assessed for test compound cytotoxicity by an adenosine triphosphate (ATP) content assay in a separate plate.
Expression levels of mRNA for CYP1A2, CYP2B6, and CYP3A4 were evaluated by the QuantiGene® Plex 2.0 methodology.

Chain of P2X7 receptor (Q99572 whole entry): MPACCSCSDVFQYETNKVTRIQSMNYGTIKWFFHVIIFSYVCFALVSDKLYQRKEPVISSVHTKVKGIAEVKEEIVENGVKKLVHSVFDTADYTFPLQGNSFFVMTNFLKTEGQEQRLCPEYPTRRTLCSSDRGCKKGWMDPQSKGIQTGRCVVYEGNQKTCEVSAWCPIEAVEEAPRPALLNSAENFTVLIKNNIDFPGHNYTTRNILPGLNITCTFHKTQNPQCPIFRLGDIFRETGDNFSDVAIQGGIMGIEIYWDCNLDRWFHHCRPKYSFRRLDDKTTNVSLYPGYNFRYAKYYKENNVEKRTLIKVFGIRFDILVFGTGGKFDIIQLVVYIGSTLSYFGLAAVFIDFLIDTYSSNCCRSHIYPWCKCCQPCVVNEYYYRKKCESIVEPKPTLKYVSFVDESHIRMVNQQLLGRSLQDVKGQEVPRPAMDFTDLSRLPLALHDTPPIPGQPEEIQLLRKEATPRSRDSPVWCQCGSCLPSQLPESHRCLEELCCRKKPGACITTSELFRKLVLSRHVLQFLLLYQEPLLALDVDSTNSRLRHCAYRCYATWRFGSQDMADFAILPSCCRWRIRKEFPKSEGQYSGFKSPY
Chain of mP2X7 (Q9Z1M0 whole entry): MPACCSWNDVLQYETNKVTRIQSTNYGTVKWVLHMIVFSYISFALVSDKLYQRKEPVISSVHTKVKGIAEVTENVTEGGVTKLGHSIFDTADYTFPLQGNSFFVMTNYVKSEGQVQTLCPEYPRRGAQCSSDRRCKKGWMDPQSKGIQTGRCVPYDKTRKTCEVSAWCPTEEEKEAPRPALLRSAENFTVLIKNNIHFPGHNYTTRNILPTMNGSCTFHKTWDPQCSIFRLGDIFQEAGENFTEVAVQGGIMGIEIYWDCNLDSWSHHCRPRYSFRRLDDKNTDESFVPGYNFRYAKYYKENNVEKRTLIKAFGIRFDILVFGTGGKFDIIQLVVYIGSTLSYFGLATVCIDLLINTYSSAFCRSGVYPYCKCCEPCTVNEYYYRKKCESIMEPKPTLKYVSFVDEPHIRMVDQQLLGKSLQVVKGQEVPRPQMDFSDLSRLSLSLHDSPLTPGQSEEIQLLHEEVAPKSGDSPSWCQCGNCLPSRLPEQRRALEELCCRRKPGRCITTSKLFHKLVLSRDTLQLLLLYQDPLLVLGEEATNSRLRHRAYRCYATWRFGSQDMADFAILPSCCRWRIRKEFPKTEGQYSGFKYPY

| IC50 [1] [nM] | IC50 [2] [nM] | CYP4503A4 mRNA fold increase at 10 μM [3] [fold] | SMILES |
| --- | --- | --- | --- |
| 36.9 | 35.9 | 4.8 | O=C(NCC(c1scnc1C(F)F)N1CCC(Oc2cccnc2)CC1)c1c(F)cccc1Cl (stereo not shown) [Example 2, 2-chloro-N-{2-[4-(difluoromethyl)-1,3-thiazol-5-yl]-2-[4-(pyridin-3-yloxy)piperidin-1-yl]ethyl}-6-fluorobenzamide] |
| 80.8 | 37.7 | 4.4 | O=C(NCC(c1scnc1C(F)F)N1CCC(Oc2ccncc2)CC1)c1c(F)cccc1Cl (stereo not shown) [Example 3, 2-chloro-N-{2-[4-(difluoromethyl)-1,3-thiazol-5-yl]-2-[4-(pyridin-4-yloxy)piperidin-1-yl]ethyl}-6-fluorobenzamide] |
| 26.9 | 23.7 | 5.0 | O=C(NCC(c1scnc1C(F)F)N1CCC(Oc2cncc(F)c2)CC1)c1c(F)cccc1Cl (stereo not shown) [Example 5, 2-chloro-N-{2-[4-(difluoromethyl)-1,3-thiazol-5-yl]-2-{4-[(5-fluoropyridin-3-yl)oxy]piperidin-1-yl}ethyl}-6-fluorobenzamide] |
| 28.9 | 32.6 | 5.6 | O=C(NCC(c1scnc1C(F)F)N1CCC(Oc2ncccc2F)CC1)c1c(F)cccc1Cl (stereo not shown) [Example 7, 2-chloro-N-{2-[4-(difluoromethyl)-1,3-thiazol-5-yl]-2-{4-[(3-fluoropyridin-2-yl)oxy]piperidin-1-yl}ethyl}-6-fluorobenzamide] |
| 170 | 47.8 | 2.2 | Cc1cc(COC2CCN(C(CNC(=O)c3c(F)cccc3Cl)c3scnc3C(F)F)CC2)no1 (stereo not shown) [Example 8, 2-chloro-N-{2-[4-(difluoromethyl)-1,3-thiazol-5-yl]-2-{4-[(5-methyl-1,2-oxazol-3-yl)methoxy]piperidin-1-yl}ethyl}-6-fluorobenzamide] |
| 53.9 | 64 | 2.6 | Cc1noc(C)c1COC1CCN(C(CNC(=O)c2c(F)cccc2Cl)c2scnc2C(F)F)CC1 (stereo not shown) [Example 9, 2-chloro-N-{2-[4-(difluoromethyl)-1,3-thiazol-5-yl]-2-{4-[(dimethyl-1,2-oxazol-4-yl)methoxy]piperidin-1-yl}ethyl}-6-fluorobenzamide] |
| 35.8 | 48.2 | – | O=C(NCC(c1scnc1C(F)F)N1CCC(COc2ccn3nccc3n2)CC1)c1c(F)cccc1Cl (stereo not shown) [Example 117, 2-Chloro-N-{2-[4-(difluoromethyl)-1,3-thiazol-5-yl]-2-[4-({pyrazolo[1,5-a]pyrimidin-5-yloxy}methyl)piperidin-1-yl]ethyl}-6-fluorobenzamide] |
| 256 | 214 | – | O=C(NCC(c1scnc1C(F)F)N1CCC(COc2cncc3nncn23)CC1)c1c(F)cccc1Cl (stereo not shown) [Example 118, 2-Chloro-N-{2-[4-(difluoromethyl)-1,3-thiazol-5-yl]-2-[4-({[1,2,4]triazolo[4,3-a]pyrazin-5-yloxy}methyl)piperidin-1-yl]ethyl}-6-fluorobenzamide] |
| 16.4 | 32.5 | – | O=C(NCC(c1scnc1C(F)F)N1CCC(COc2ncccc2Cl)CC1)c1c(F)cccc1Cl (stereo not shown) [Example 120, 2-Chloro-N-[2-(4-{[(3-chloropyridin-2-yl)oxy]methyl}piperidin-1-yl)-2-[4-(difluoromethyl)-1,3-thiazol-5-yl]ethyl]-6-fluorobenzamide] |
| 44.2 | 39.6 | – | N#Cc1cnccc1OCC1CCN(C(CNC(=O)c2c(F)cccc2Cl)c2scnc2C(F)F)CC1 (stereo not shown) [Example 122, 2-Chloro-N-[2-(4-{[(3-cyanopyridin-4-yl)oxy]methyl}piperidin-1-yl)-2-[4-(difluoromethyl)-1,3-thiazol-5-yl]ethyl]-6-fluorobenzamide] |
| 34.7 | 36.5 | – | O=C(NCC(c1scnc1C(F)F)N1CCC(COc2cc(F)ccn2)CC1)c1c(F)cccc1Cl (stereo not shown) [Example 126, 2-chloro-N-{2-[4-(difluoromethyl)-1,3-thiazol-5-yl]-2-(4-{[(4-fluoropyridin-2-yl)oxy]methyl}piperidin-1-yl)ethyl}-6-fluorobenzamide] |

Source: patent publication US20240034737A1, “Heterocyclic Derivatives as P2X7 Receptor Antagonists” (BREYE THERAPEUTICS APS, priority 2020, published 2024)
